Experimental data reported in patent US6469037B2, “Prophylactic or therapeutic drug for renal diseases” (Takeda Chemical Industries, Ltd., priority 1993, dated 2002).

How the values were obtained:
Wistar fatty rats = test: Antiproteinuric action in rats with non-insulin-dependent diabetes (Wistar fatty rats); assay type: in vivo
Excerpt: Antiproteinuric action in rats with non-insulin-dependent (NIDD) diabetes (Wistar fatty rats) (Ikeda, H., Shino, A., Matsuo, T., Iwatsuka, H., and Suzuoki, Z.: Diabetes, 30, 1045 (1981) or Kava, R. A., West, D. B., Lukasik, V. A., and Greenwood, M. R. C: Diabetes, 38,159 (1989) Compound 1: (±)-1-(cyclohexyloxycarbonyloxy)ethyl 2-ethoxy-1-[[2′-(1H-tetrazole-5-yl)biphenyl-4-yl]methyl]-1H-benzimidazole-7-carboxylate Method: On the basis of blood glucose level and urinary protein content, 11-week-old Wistar fatty rats were divided into two groups (vehicle-treated rats and rats treated with 1 mg/kg/day, p.o. of compound 1). Non-diabetic control rats (lean rats) were also used. Compound 1 was suspended in gum-arabic and the suspension was orally administered once a day for ten weeks. At the 2nd, 4th, 6th, 8th and 10th week of the treatment, 24 hour urine was collected. The urine was centrifuged at 3,000 rpm and a portion of the supernatant was desalted on a column (Pharmacia PD10). Urinary total protein content and albumin content were determined by Lowry and ELISA methods, respectively. Results: Table 2 summarizes the results. Urinary total protein content increased in vehicle-treated rats to about three times of the value in lean rats. This increase, however, was reduced to 1.2-1.5 times by the-treatment with compound 1. […] This increase, however, was reduced to 20-30 times by the treatment with compound 1. […] In non-insulin-dependent diabetic models, compound 1 is expected to be effective against diabetic nephropathy by decreasing the urinary protein without affecting the blood glucose level.

in vivo = settings: both sexes, po
Procedure: Acute Toxicity Test Compound 1: (±)-1-(cyclohexyloxycarbonyloxy)ethyl 2-ethoxy-1-[[2′-(1H-tetrazole-5-yl)biphenyl-4-yl]methyl]-1H-benzimidazole-7-carboxylate The LD50 of compound 1 is 2,000 mg/kg or more for 4-week-old Jcl:ICR mice (males and females) and for 5-week-old Jcl:Wister rats (males and females) via single oral administration.

[1] = tested on: rats with subtotally (5/6) nephrectomy; test: Antiproteinuric action in rats with subtotally (5/6) nephrectomy (focal glomerulosclerosis model); assay type: in vivo
Excerpt: Antiproteinuric action in rats with subtotally (5/6) nephrectomy (focal glomerulorsclerosis model; Meyer, T. W. and Renake, H. G.: Am. J. Physiol. 254, F856 (1988) or Yoshioka, T., Shiraga, H., Yoshida, Y., Fogo. A., Glick, A. D.: J. Clin. Invest. 82, 1614 (1988)) Compound 1: (±)-1-(cyclohexyloxycarbonyloxy)ethyl 2-ethoxy-1-[[2′-(1H-tetrazole-5-yl)biphenyl-4-yl]methyl]-1H-benzmidazole-7-carboxylate Method: Five-week-old male rats were anesthetized by intraperitoneal injection of pentobarbital sodium and ⅔ of the right kidney was removed. One week later, the entire left kidney was removed under similar anesthesia. After two-week breeding, 24-hour urine was collected and the total protein content and albumin content in the urine were determined by the use of A/G-B test (Wako Pure Chemistry Co., Ltd.). On the basis of urinary protein and blood pressure (BP), the rats were divided into two groups (vehicle-treated rats and rats treated with 1 mg/kg/day, p.o. of compound 1). Rats undergoing nephrectomy of the left kidney alone were also used as sham operated rats. Compound 1 was suspended in gum-arabic and the suspension was orally administered once a day for eight weeks. At the 2nd, 4th, 6th and 8th week of the treatment, 24-hour urine was collected. Results: Table 1 summarizes the results. Urinary total protein and albumin began to markedly increase in vehicle-treated rats two weeks after surgery. […] Since compound 1 suppresses aggravation of renal impairment, its efficacy in glomerulonephritis or diabetic nephropathy is expected.

[2] = age 11 weeks (start of treatment, baseline), Wistar fatty rats, n = 6, mean ± standard error
[3] = age 13 weeks, 1 mg/kg/day p.o., mean ± standard error
[4] = age 15 weeks, 1 mg/kg/day p.o., mean ± standard error
[5] = age 17 weeks, 1 mg/kg/day p.o., mean ± standard error
[6] = age 19 weeks, 1 mg/kg/day p.o., mean ± standard error
[7] = age 21 weeks, 1 mg/kg/day p.o., mean ± standard error
[8] = 2 weeks after the first dose, 1 mg/kg/day p.o., mean ± standard error
[9] = 4 weeks after the first dose, 1 mg/kg/day p.o., mean ± standard error
[10] = 6 weeks after the first dose, 1 mg/kg/day p.o., mean ± standard error
[11] = 8 weeks after the first dose, 1 mg/kg/day p.o., mean ± standard error
[12] = Preadministration (baseline), 5/6 nephrectomized rats, n = 9, mean ± standard error

CCOc1nc2cccc(C(=O)OC(C)OC(=O)OC3CCCCC3)c2n1Cc1ccc(-c2ccccc2-c2nnn[nH]2)cc1 (racemic) [Compound 1, (±)-1-(cyclohexyloxycarbonyloxy)ethyl 2-ethoxy-1-[[2′-(1H-tetrazole-5-yl)biphenyl-4-yl]methyl]-1H-benzimidazole-7-carboxylate]
Effect on blood glucose level (Wistar fatty rats; Wistar fatty rats, 1 mg/kg/day p.o.): did not affect blood glucose level
Urinary albumin content relative to the value in lean rats (Wistar fatty rats; Wistar fatty rats, 1 mg/kg/day p.o., vehicle-treated about 100 times): 20-30 times
Urinary total protein content relative to the value in lean rats (Wistar fatty rats; Wistar fatty rats, 1 mg/kg/day p.o., vehicle-treated about three times): 1.2-1.5 times
Urinary albumin (Wistar fatty rats; [2]): 6.5 ± 0.4 mg/24 hr
Urinary total protein (Wistar fatty rats; [2]): 101 ± 6 mg/24 hr
Urinary albumin (Wistar fatty rats; [3]): 11.2 ± 3.9 mg/24 hr
Urinary total protein (Wistar fatty rats; [3]): 69 ± 11 mg/24 hr
Urinary albumin (Wistar fatty rats; [4]): 14.8 ± 6.1 mg/24 hr
Urinary total protein (Wistar fatty rats; [4]): 91 ± 12 mg/24 hr
Urinary albumin (Wistar fatty rats; [5]): 21.8 ± 8.2 mg/24 hr
Urinary total protein (Wistar fatty rats; [5]): 97 ± 11 mg/24 hr
Urinary albumin (Wistar fatty rats; [6]): 10.7 ± 3.9 mg/24 hr
Urinary total protein (Wistar fatty rats; [6]): 79 ± 10 mg/24 hr
Urinary albumin (Wistar fatty rats; [7]): 15.4 ± 3.7 mg/24 hr
Urinary total protein (Wistar fatty rats; [7]): 74 ± 13 mg/24 hr
LD50 (in vivo; Jcl:ICR, mouse): ≥ 2000 mg/kg
LD50 (in vivo; Jcl:Wister, rat): ≥ 2000 mg/kg
Urinary albumin [1, 8]: 6.3 ± 2.9 mg/100 g/24 hr
Urinary total protein [1, 8]: 30.9 ± 5.2 mg/100 g/24 hr
Urinary albumin [1, 9]: 6.8 ± 3.4 mg/100 g/24 hr
Urinary total protein [1, 9]: 27.7 ± 4.0 mg/100 g/24 hr
Urinary total protein and albumin (course versus vehicle-treated rats) ([1]; 5/6 nephrectomized rats, 1 mg/kg/day p.o. for eight weeks): these parameters did not increase
Urinary albumin [1, 10]: 7.4 ± 4.0 mg/100 g/24 hr
Urinary total protein [1, 10]: 17.6 ± 5.6 mg/100 g/24 hr
Urinary albumin [1, 11]: 5.6 ± 2.7 mg/100 g/24 hr
Urinary total protein [1, 11]: 24.4 ± 2.7 mg/100 g/24 hr
Urinary albumin [1, 12]: 7.3 ± 2.3 mg/100 g/24 hr
Urinary total protein [1, 12]: 32.8 ± 5.4 mg/100 g/24 hr
